Measured values as given in patent US10167262B2, “Herbicidal substituted 3-arylpyrazoles” (FMC CORPORATION, priority 2014, dated 2019).

Experiments:
Test in all cases: Test C pre-/postemergence greenhouse test, plant response rating 0-100;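 for Plant response rating (0 to 100), Blackgrass: 0 is no effect and 100 is complete control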;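 for Plant response rating (0 to 100), Ragweed: 0 is no effect and 100 is complete control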;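 for Plant response rating, Blackgrass: 0 is no effect and 100 is complete control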;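 for Plant response rating, Ragweed: 0 is no effect and 100 is complete control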
Format in all cases: in vivo
[1] = tested on: giant foxtail (Setaria faberii); settings: Postemergence; for Plant response rating, Foxtail, Giant: scale 0 to 100
Method in brief: (§1)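 Formulated in solvent with surfactant, test chemicals were sprayed on seeded loam/sand pots and, concurrently, on young plants 2–18 cm tall. Evaluation: visual, versus controls, day 13–15.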

[2] = tested on: Italian ryegrass (Lolium multiflorum); settings: Postemergence; for Plant response rating, Ryegrass, Italian: scale 0 to 100
Method in brief: as §1

[3] = tested on: yellow nutsedge (Cyperus esculentus); settings: Postemergence; for Plant response rating, Nutsedge, Yellow: scale 0 to 100
Method in brief: as §1

[4] = tested on: winter wheat (Triticum aestivum); settings: Postemergence; for Plant response rating, Wheat: scale 0 to 100
Method in brief: as §1

[5] = tested on: johnsongrass (Sorghum halepense); settings: Postemergence; for Plant response rating, Johnsongrass: scale 0 to 100
Method in brief: as §1

[6] = tested on: pigweed (Amaranthus retroflexus); settings: Postemergence; for Plant response rating, Pigweed: scale 0 to 100
Method in brief: as §1

[7] = tested on: ragweed (common ragweed, Ambrosia elatior); settings: Postemergence; for Plant response rating, Ragweed: scale 0 to 100;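 for all read-outs here: 0 is no effect and 100 is complete control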
Method in brief: as §1

soybean (Glycine max) = settings: Postemergence; for Plant response rating, Soybean: scale 0 to 100
Method in brief: as §1

[8] = tested on: large (Lg) crabgrass (Digitaria sanguinalis); settings: Postemergence; for Plant response rating, Crabgrass, Large: scale 0 to 100
Method in brief: as §1

[9] = tested on: blackgrass (Alopecurus myosuroides); settings: Postemergence; for Plant response rating, Blackgrass: scale 0 to 100;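 for all read-outs here: 0 is no effect and 100 is complete control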
Method in brief: as §1

[10] = tested on: velvetleaf (Abutilon theophrasti); settings: Postemergence; for Plant response rating, Velvetleaf: scale 0 to 100
Method in brief: as §1

[11] = tested on: lambsquarters (Chenopodium album); settings: Postemergence; for Plant response rating, Lambsquarters: scale 0 to 100
Method in brief: as §1

corn (Zea mays) = settings: Postemergence; for Plant response rating, Corn: scale 0 to 100
Method in brief: as §1

CCn1cc(C(=O)c2ccccc2)c(-c2cc(Cl)cc(Cl)c2)n1 [Compound 31, [3-(3,5-dichlorophenyl)-1-ethyl-1H-pyrazol-4-yl]phenylmethanone]
pest or weed control at 16 g/ha ([1]; Setaria faberi, post-emergence, 16 g ai/ha): 5%
pest or weed control at 31 g/ha ([1]; Setaria faberi, post-emergence, 31 g ai/ha, read-out: Plant response rating (0 to 100), Foxtail, Giant): 5%
pest or weed control at 62 g/ha ([1]; Setaria faberi, post-emergence, 62 g ai/ha, read-out: Plant response rating (0 to 100), Foxtail, Giant): 5%
pest or weed control at 125 g/ha ([1]; Setaria faberi, post-emergence, 125 g ai/ha, read-out: Plant response rating (0 to 100), Foxtail, Giant): 5%
pest or weed control at 16 g/ha ([2]; Lolium multiflorum, post-emergence, 16 g ai/ha): 0%
pest or weed control at 62 g/ha ([2]; Lolium multiflorum, post-emergence, 62 g ai/ha, read-out: Plant response rating (0 to 100), Ryegrass, Italian): 0%
pest or weed control at 125 g/ha ([2]; Lolium multiflorum, post-emergence, 125 g ai/ha, read-out: Plant response rating (0 to 100), Ryegrass, Italian): 0%
pest or weed control at 16 g/ha ([3]; Cyperus, post-emergence, 16 g ai/ha): 0%
pest or weed control at 62 g/ha ([3]; Cyperus, post-emergence, 62 g ai/ha, read-out: Plant response rating (0 to 100), Nutsedge, Yellow): 5%
pest or weed control at 125 g/ha ([3]; Cyperus, post-emergence, 125 g ai/ha, read-out: Plant response rating (0 to 100), Nutsedge, Yellow): 5%
plant injury at 16 g/ha ([4]; Triticum aestivum, post-emergence, 16 g ai/ha): 0%
plant injury at 62 g/ha ([4]; Triticum aestivum, post-emergence, 62 g ai/ha, read-out: Plant response rating (0 to 100), Wheat): 0%
plant injury at 125 g/ha ([4]; Triticum aestivum, post-emergence, 125 g ai/ha, read-out: Plant response rating (0 to 100), Wheat): 0%
pest or weed control at 16 g/ha ([5]; Sorghum halepense, post-emergence, 16 g ai/ha): 0%
pest or weed control at 62 g/ha ([5]; Sorghum halepense, post-emergence, 62 g ai/ha, read-out: Plant response rating (0 to 100), Johnsongrass): 5%
pest or weed control at 125 g/ha ([5]; Sorghum halepense, post-emergence, 125 g ai/ha, read-out: Plant response rating (0 to 100), Johnsongrass): 10%
pest or weed control at 16 g/ha ([6]; Amaranthus retroflexus, post-emergence, 16 g ai/ha): 20%
pest or weed control at 125 g/ha ([6]; Amaranthus retroflexus, post-emergence, 125 g ai/ha, read-out: Plant response rating (0 to 100), Pigweed): 75%
pest or weed control at 16 g/ha ([7]; Ambrosia artemisiifolia, post-emergence, 16 g ai/ha): 0%
pest or weed control at 62 g/ha ([7]; Ambrosia artemisiifolia, post-emergence, 62 g ai/ha, read-out: Plant response rating (0 to 100), Ragweed): 0%
pest or weed control at 125 g/ha ([7]; Ambrosia artemisiifolia, post-emergence, 125 g ai/ha, read-out: Plant response rating (0 to 100), Ragweed): 5%
plant injury at 16 g/ha (soybean (Glycine max); Glycine max, post-emergence, 16 g ai/ha): 0%
plant injury at 62 g/ha (soybean (Glycine max); Glycine max, post-emergence, 62 g ai/ha, read-out: Plant response rating (0 to 100), Soybean): 0%
plant injury at 125 g/ha (soybean (Glycine max); Glycine max, post-emergence, 125 g ai/ha, read-out: Plant response rating (0 to 100), Soybean): 5%
pest or weed control at 16 g/ha ([8]; Digitaria sanguinalis, post-emergence, 16 g ai/ha): 5%
pest or weed control at 31 g/ha ([8]; Digitaria sanguinalis, post-emergence, 31 g ai/ha, read-out: Plant response rating (0 to 100), Crabgrass, Large): 5%
pest or weed control at 62 g/ha ([8]; Digitaria sanguinalis, post-emergence, 62 g ai/ha, read-out: Plant response rating (0 to 100), Crabgrass, Large): 5%
pest or weed control at 125 g/ha ([8]; Digitaria sanguinalis, post-emergence, 125 g ai/ha, read-out: Plant response rating (0 to 100), Crabgrass, Large): 5%
pest or weed control at 16 g/ha ([9]; Alopecurus myosuroides, post-emergence, 16 g ai/ha): 0%
pest or weed control at 31 g/ha ([9]; Alopecurus myosuroides, post-emergence, 31 g ai/ha, read-out: Plant response rating (0 to 100), Blackgrass): 0%
pest or weed control at 62 g/ha ([9]; Alopecurus myosuroides, post-emergence, 62 g ai/ha, read-out: Plant response rating (0 to 100), Blackgrass): 0%
pest or weed control at 125 g/ha ([9]; Alopecurus myosuroides, post-emergence, 125 g ai/ha, read-out: Plant response rating (0 to 100), Blackgrass): 0%
pest or weed control at 16 g/ha ([10]; Abutilon theophrasti, post-emergence, 16 g ai/ha): 50%
pest or weed control at 62 g/ha ([10]; Abutilon theophrasti, post-emergence, 62 g ai/ha, read-out: Plant response rating (0 to 100), Velvetleaf): 75%
pest or weed control at 125 g/ha ([10]; Abutilon theophrasti, post-emergence, 125 g ai/ha, read-out: Plant response rating (0 to 100), Velvetleaf): 80%
pest or weed control at 16 g/ha ([11]; Chenopodium album, post-emergence, 16 g ai/ha): 25%
pest or weed control at 62 g/ha ([11]; Chenopodium album, post-emergence, 62 g ai/ha, read-out: Plant response rating (0 to 100), Lambsquarters): 55%
pest or weed control at 125 g/ha ([11]; Chenopodium album, post-emergence, 125 g ai/ha, read-out: Plant response rating (0 to 100), Lambsquarters): 80%
Corn plant response rating (crop injury, 0 = no effect, 100 = complete kill) at 16 g/ha (corn (Zea mays); Zea mays, post-emergence, 16 g ai/ha): 0%
plant injury at 31 g/ha (corn (Zea mays); Zea mays, post-emergence, 31 g ai/ha): 0%
plant injury at 62 g/ha (corn (Zea mays); Zea mays, post-emergence, 62 g ai/ha): 0%
plant injury at 125 g/ha (corn (Zea mays); Zea mays, post-emergence, 125 g ai/ha): 0%

Fc1ccc(NN=C(c2ccccc2)c2c[nH]nc2-c2cc(Cl)cc(Cl)c2)cc1 [Compound 35]
Plant response rating (0 to 100), Foxtail, Giant ([1]; 62 g ai/ha): 0
Plant response rating (0 to 100), Foxtail, Giant ([1]; 125 g ai/ha): 0
Plant response rating, Foxtail, Giant ([1]; 250 g ai/ha): 0
Plant response rating, Foxtail, Giant ([1]; 500 g ai/ha): 5
Plant response rating (0 to 100), Ryegrass, Italian ([2]; 62 g ai/ha): 0
Plant response rating (0 to 100), Ryegrass, Italian ([2]; 125 g ai/ha): 0
Plant response rating, Ryegrass, Italian ([2]; 250 g ai/ha): 0
Plant response rating, Ryegrass, Italian ([2]; 500 g ai/ha): 0
Plant response rating (0 to 100), Nutsedge, Yellow ([3]; 62 g ai/ha): 0
Plant response rating (0 to 100), Nutsedge, Yellow ([3]; 125 g ai/ha): 5
Plant response rating, Nutsedge, Yellow ([3]; 250 g ai/ha): 5
Plant response rating, Nutsedge, Yellow ([3]; 500 g ai/ha): 5
Plant response rating (0 to 100), Wheat ([4]; 62 g ai/ha): 0
Plant response rating (0 to 100), Wheat ([4]; 125 g ai/ha): 0
Plant response rating, Wheat ([4]; 250 g ai/ha): 0
Plant response rating, Wheat ([4]; 500 g ai/ha): 0
Plant response rating (0 to 100), Johnsongrass ([5]; 62 g ai/ha): 0
Plant response rating (0 to 100), Johnsongrass ([5]; 125 g ai/ha): 0
Plant response rating, Johnsongrass ([5]; 250 g ai/ha): 0
Plant response rating, Johnsongrass ([5]; 500 g ai/ha): 0
Plant response rating (0 to 100), Pigweed ([6]; 62 g ai/ha): 85
Plant response rating (0 to 100), Pigweed ([6]; 125 g ai/ha): 100
Plant response rating, Pigweed ([6]; 250 g ai/ha): 100
Plant response rating, Pigweed ([6]; 500 g ai/ha): 100
Plant response rating (0 to 100), Ragweed ([7]; 62 g ai/ha): 15
Plant response rating (0 to 100), Ragweed ([7]; 125 g ai/ha): 40
Plant response rating, Ragweed ([7]; 250 g ai/ha): 50
Plant response rating, Ragweed ([7]; 500 g ai/ha): 55
Plant response rating (0 to 100), Soybean (soybean (Glycine max); 62 g ai/ha): 10
Plant response rating (0 to 100), Soybean (soybean (Glycine max); 125 g ai/ha): 10
Plant response rating, Soybean (soybean (Glycine max); 250 g ai/ha): 10
Plant response rating, Soybean (soybean (Glycine max); 500 g ai/ha): 10
Plant response rating (0 to 100), Crabgrass, Large ([8]; 62 g ai/ha): 5
Plant response rating (0 to 100), Crabgrass, Large ([8]; 125 g ai/ha): 5
Plant response rating, Crabgrass, Large ([8]; 250 g ai/ha): 5
Plant response rating, Crabgrass, Large ([8]; 500 g ai/ha): 5
Plant response rating (0 to 100), Blackgrass ([9]; 62 g ai/ha): 0
Plant response rating (0 to 100), Blackgrass ([9]; 125 g ai/ha): 0
Plant response rating, Blackgrass ([9]; 250 g ai/ha): 0
Plant response rating, Blackgrass ([9]; 500 g ai/ha): 0
Plant response rating (0 to 100), Velvetleaf ([10]; 62 g ai/ha): 60
Plant response rating (0 to 100), Velvetleaf ([10]; 125 g ai/ha): 65
Plant response rating, Velvetleaf ([10]; 250 g ai/ha): 70
Plant response rating, Velvetleaf ([10]; 500 g ai/ha): 70
Plant response rating (0 to 100), Lambsquarters ([11]; 62 g ai/ha): 98
Plant response rating (0 to 100), Lambsquarters ([11]; 125 g ai/ha): 98
Plant response rating, Lambsquarters ([11]; 250 g ai/ha): 100
Plant response rating, Lambsquarters ([11]; 500 g ai/ha): 100
Plant response rating (0 to 100), Corn (corn (Zea mays); 62 g ai/ha): 0
Plant response rating (0 to 100), Corn (corn (Zea mays); 125 g ai/ha): 0
Plant response rating, Corn (corn (Zea mays); 250 g ai/ha): 5
Plant response rating, Corn (corn (Zea mays); 500 g ai/ha): 5
